Source: patent US6899886B2, “Acylacetonitriles, process for preparation thereof and miticides containing the same” (Otsuka Chemical Co., Ltd., priority 2000, dated 2005)

Experiments:
Type in all cases: in vivo
Apple (fuji) = assay: Test Example 5: phytotoxicity test on field crops; settings: 20% wettable powder, degree of dilution 1000, 0.4 liters/m^2, 27 days after spraying
Method: (§1) The 20% wettable powders obtained in formulation example 2 were diluted to a predetermined degree and sprayed onto crops in a field in an amount of 0.4 liters/m^2. In a predetermined period after spraying, the development of phytotoxicity was observed by the naked eye. As test compounds, test compounds A, B and C above were used.

Pear (hosui) = assay: Test Example 5: phytotoxicity test on field crops; settings: 20% wettable powder, degree of dilution 2000, 0.4 liters/m^2, 21 days after spraying
Method: as §1

Tea (yabukita) = assay: Test Example 5: phytotoxicity test on field crops; settings: 20% wettable powder, degree of dilution 1000, 0.4 liters/m^2, 21 days after spraying
Method: as §1

Orange (iyo) = assay: Test Example 5: phytotoxicity test on field crops; settings: 20% wettable powder, degree of dilution 1000, 0.4 liters/m^2, 40 days after spraying
Method: as §1

Apple (jonagold) = assay: Test Example 5: phytotoxicity test on field crops; settings: 20% wettable powder, degree of dilution 1000, 0.4 liters/m^2, 14 days after spraying
Method: as §1

Grape (pione) = assay: Test Example 5: phytotoxicity test on field crops; settings: 20% wettable powder, degree of dilution 2000, 0.4 liters/m^2, 28 days after spraying
Method: as §1

two-spotted spider mites [1] = assay: Test Example 4: residual miticidal test on two-spotted spider mites (sprayed kidney bean plant); settings: 200 ppm, 30 ml sprayed on kidney bean plant, counted 2 days later; for Adjusted mortality rate (%) 3 days after spraying: mites introduced 3 days after spraying; for Adjusted mortality rate (%) 5 days after spraying: mites introduced 5 days after spraying
Method: (§2) • Test compound A: Compound No. 1 in table 3 (the compound of the invention). • Test compound B: Compound No. 2 in table 3 (the compound of the invention). • Test compound C: Compound No. 10 in table 3 (the compound of the invention). • Test compound E: Compound No. a-683 disclosed in table 1-a on page 81 of Japanese Unexamined Patent Publication No. 158137/1999. (2) Preparation of Emulsifiable Concentration
(§3) Emulsifiable concentrates were prepared by adding the test compound, acetone and Sorpol 355 (surfactant) to distilled water. These emulsions were set to contain acetone in the proportion of 5 wt. % and Sorpol 355 in the proportion of 0.01 wt. %. The concentration of the test compound was set at 200 ppm.
30 ml of each emulsifiable concentrate prepared above was sprayed onto a kidney bean plant (at the stage of true leaf growth) in a 9-cm pot, and air-dried. The pot was placed in a glass greenhouse. Each of the first and second leaves was cut into a piece having a size of 3×5 cm, and 15 female adults of two-spotted spider mite were introduced thereto after 3 and 5 days of the spraying. Those pieces of leaves were placed in a thermostatic chamber having a temperature of 25±1° C. The number of live and dead mites was counted 2 days later. The mortality rate thereof was calculated in the same manner as in test example 3 above.

[2] = test system: rice plants, cucumbers, cabbages, spinaches, lettuces, tomatoes, leeks, carrots or kidney bean plants; assay: Test Example 6: phytotoxicity test; settings: 0.2 liters/m^2
Method: As test compounds, test compounds A, B and C above were used. The 20% wettable powders prepared in formulation example 2 were diluted 500 and 1,000 times. These diluted wettable powders were sprayed onto rice plants, cucumbers, cabbages, […], lettuces, tomatoes, leeks, carrots or kidney bean plants in an amount of 0.2 liters/m^2. The development of phytotoxicity was examined by the naked eye 7 and 14 days after the spraying. […] Further, 20% wettable powders using test compound B were diluted 50, 100 and 200 times, and sprayed onto cucumbers, cabbages, leeks or carrots in an amount of 0.2 liters/m^2. The development of phytotoxicity was examined by the naked eye 7 and 14 days after spraying.

two-spotted spider mites [3] = assay: Test Example 3: miticidal test on two-spotted spider mites at low concentration; settings: 20 ppm emulsifiable concentrate, 2 ml sprayed on leaf with 30 female adults; counted 2 days later
Method: as §2, with “compound D: Intermediate” for “compound E: Compound”, “No. II-25” for “No. a-683”, “table 2” for “table 1-a”, “page 101” for “page 81”, “Emulsifiable Concentrate” for “Emulsifiable Concentration”
as §3, with “20” for “200”
2 ml of each emulsifiable concentrate prepared above was sprayed onto a piece of a kidney bean leaf (2×4 cm) with 30 female adults of two-spotted spider mites. After being air-dried, the leaf was placed in a thermostatic chamber having a temperature of 25±1° C. The number of live and dead mites was counted 2 days later. The mortality rate was calculated using the following equation: Mortality rate={1−(survival rate in treated area)/(survival rate in untreated area)}×100

Eggplant (senryo) = assay: Test Example 5: phytotoxicity test on field crops; settings: 20% wettable powder, degree of dilution 1000, 0.4 liters/m^2, 14 days after spraying
Method: as §1

Orange (mandarin) = assay: Test Example 5: phytotoxicity test on field crops; settings: 20% wettable powder, degree of dilution 1000, 0.4 liters/m^2, 40 days after spraying
Method: as §1

Orange (sour orange) = assay: Test Example 5: phytotoxicity test on field crops; settings: 20% wettable powder, degree of dilution 400, 0.4 liters/m^2, 40 days after spraying
Method: as §1

two-spotted spider mites [4] = assay: whole plant or invertebrate; settings: 48 h; 200 ppm sprayed onto kidney bean leaves; after 2 days; read-out: mortality rate of the two-spotted spider mites
Text: A piece of non-woven fabric (4.5×5.5 cm) was suspended inside a plastic cup through an incision made in the lid of the plastic cup. After water was poured into the cup, the cup was covered with the lid. A kidney bean leaf (about 3.5×4.5 cm) was then placed on the sufficiently soaked, non-woven fabric. Another kidney bean leaf with two-spotted spider mites (about 30 mite samples) was placed on top of the first leaf, and the fabric and leaves were placed in a thermostatic chamber having a temperature of 25±2° C. and a humidity of 40%.
Miticidal formulations containing the compound of the invention (200 ppm) were prepared by adding an aqueous solution (100 ppm) of Sorpol 355 (manufactured by Toho Kagaku Co., Ltd.) to a methanol solution of the compound of the invention.
These miticidal formulations were sprayed onto the leaves, and the leaves were air-dried and placed in a thermostatic chamber (25±2° C., humidity 50%). The mortality rate of the two-spotted spider mites was calculated after 2 days.

[5] = 20% wettable powders diluted 500 and 1,000 times, nine plant kinds, 7 and 14 days after the spraying

SMILES	Phytotoxicity (Apple (fuji))	Phytotoxicity (Pear (hosui))	Phytotoxicity (Tea (yabukita))	Phytotoxicity (Orange (iyo))	Phytotoxicity (Apple (jonagold))	Phytotoxicity (Grape (pione))	Adjusted mortality rate (%) 3 days after spraying (two-spotted spider mites [1]) [%]	Adjusted mortality rate (%) 5 days after spraying (two-spotted spider mites [1]) [%]	development of phytotoxicity [2, 5]	mortality rate (two-spotted spider mites [3]) [%]	Phytotoxicity (Eggplant (senryo))	Phytotoxicity (Orange (mandarin))	Phytotoxicity (Orange (sour orange))	development of phytotoxicity ([2]; 20% wettable powders diluted 50, 100 and 200 times, cucumbers, cabbages, leeks or carrots, 7 and 14 days after spraying)	mortality at 200 ppm (two-spotted spider mites [4]) [%]
COC(=O)C(C#N)(C(=O)c1ccccc1C(F)(F)F)c1ccc(C(C)(C)C)cc1 (racemic) [Compound No. 1]	None	None	None	None	None	None	100	95	no development of phytotoxicity was observed	100	–	–	–	–	–
COCCOC(=O)C(C#N)(C(=O)c1ccccc1C(F)(F)F)c1ccc(C(C)(C)C)cc1 (racemic) [Compound No. 10]	None	None	None	None	None	None	100	100	no development of phytotoxicity was observed	100	–	–	–	–	–
CCOC(=O)C(C#N)(C(=O)c1ccccc1C(F)(F)F)c1ccc(C(C)(C)C)cc1 (racemic) [Compound No. 2]	None	None	None	None	None	None	100	93	no development of phytotoxicity was observed	100	None	None	None	no development of phytotoxicity was observed	–
COC(=O)C(C#N)(C(=O)c1ccccc1C(F)(F)F)c1ccc(Cl)cc1 (centres unmarked) [Compound No. 30, Methyl 2-(4-Chlorophenyl)-2-(2-Trifluoromethylbenzoyl)Cyanoacetate]	–	–	–	–	–	–	–	–	–	–	–	–	–	–	≥ 50
